Each structure is given as a SMILES string.

A short description of the data set: gradient 5% acetonitrile 3 min, to 50% in 2 min, to 85% in 15 min, held 3 min, 100 µL/min. The following applies: column: Zorbax Extend-C18 2.1 x 50 mm; eluents: water / acetonitrile, 0.1% formic acid. The procedure, abridged: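 Using water and acetonitrile that each contained 0.1% formic acid, mixtures of ~100 pure standards were separated at 100 μL/min on a Zorbax Extend-C18 column (2.1 × 50 mm, 1.8 μm). The HPLC fed a quadrupole time-of-flight mass spectrometer working in positive and negative ionization mode, with dead and dwell volumes of 40 μL and 900 μL. Data were acquired over 3 months. Retention time was read from computationally picked adduct peaks after manual inspection of each.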
Compound `Cc1nc(Nc2ccccc2)sc1C(=O)NC1CCCC1` yielded an RP-LC retention time of 869 s.

For the compound `COc1cccc(-c2[nH]ncc2CN2C[C@@H]3CCN(S(C)(=O)=O)C[C@]3(CF)C2)c1`, the RP-LC retention time is 599 s.

`C=C[C@]12CN(C)C3C4COC(CC41)[C@]1(C(=O)Nc4ccccc41)[C@@H]32` (stereo not given in full): the RP-LC retention time was found to be 551 s.

On to `Cc1nnsc1C(=O)N1CCC(CNC(=O)Cn2c(=O)oc3ccccc32)CC1`, for which the RP-LC retention time came to 641 s.

Take `CCc1cccc(NC(=O)Cn2nc(C(=O)N3CCOCC3)c3ccccc32)c1`: the RP-LC retention time turned out to be 840 s.

For the compound `COc1ccc(NC(=O)NC2CCN(c3cc(N4CCCC4)cnn3)C2)c(C)c1` (stereo not given), the RP-LC retention time was determined as 626 s.

The compound `Cc1cccc(N2C(=O)CN(CCc3cccs3)[C@H]3CS(=O)(=O)C[C@H]32)c1` yielded an RP-LC retention time of 814 s.

With `CCN(C(=O)C1CCCN1S(=O)(=O)c1cc2c(cc1Cl)NC(=O)CO2)c1cccc(C)c1` (stereo not given), the RP-LC retention time was found to be 816 s.

Compound `Cc1ccc(CNC(=O)C2CCN(S(=O)(=O)c3cc(C(=O)N(C)C)cs3)CC2)cc1` returned an RP-LC retention time of 762 s.

In turn, `CN(C)c1ccc(N2CCC(C(=O)NCCc3c[nH]c4ccccc34)CC2)nn1` returned an RP-LC retention time of 621 s.

For the compound `O=C(Cn1c(=O)oc2ccc(C(=O)N3CCCCC3)cc21)N1CCc2ccccc2C1`, the RP-LC retention time came to 804 s.

`Cc1cccc(CNC(=O)c2c(C)sc3ccn(C)c(=O)c23)c1` came in with an RP-LC retention time of 787 s.

Compound `CSc1cccc(NC(=O)N2CCCC(C)(C(=O)NCc3ccccc3)C2)c1` (stereo not given) displayed an RP-LC retention time of 951 s.

`Cc1cc(C)cc(NC(=O)C2CCCN(c3nc4ccsc4c(=O)n3-c3cccc(C)c3)C2)c1` (stereo not given) returned an RP-LC retention time of 1100 s.

In turn, `Cc1nc(-c2cccc(-c3noc(CN4C(=O)COc5ccc(Cl)cc54)n3)c2)cs1` registered an RP-LC retention time of 1180 s.

`CN1C(=O)C2(CCN(C(=O)c3ccc(Cl)cc3)C2)c2ccccc21` (stereo not given): the RP-LC retention time is 851 s.

`O=C(NCCc1cccc(F)c1)C1CC(=O)N(c2n[nH]c3cccc(F)c23)C1` (stereo not given) returned an RP-LC retention time of 720 s.

`Cc1cc2c(cc1S(=O)(=O)N1CCCC1C(=O)N1CCCCC1)OC(C)C(=O)N2` (stereo not given) displayed an RP-LC retention time of 710 s.

With `COc1cccc(S(=O)(=O)N2C[C@@H]3C[C@H]2C[C@@H]3NC(=O)c2ccccc2)c1`, the RP-LC retention time turned out to be 840 s.

On to `CCOc1ccc(S(=O)(=O)N2CCC3(CC2)CN(C)CC3c2nnc(CC)o2)cc1` (stereo not given), for which the RP-LC retention time turned out to be 638 s.

In the case of `COCC1CCN(C(=O)NCc2cccc3ccccc23)CC1`, the RP-LC retention time turned out to be 769 s.

The compound `CCNC(=O)CCc1nc2ccccc2n(CC(=O)Nc2ccc(C(=O)OCC)cc2)c1=O` gave an RP-LC retention time of 764 s.

In the case of `CCN(CC)C(C)CN1c2ccccc2Sc2ccccc21` (stereo not given), the RP-LC retention time is 813 s.

In turn, `Cc1cc(S(=O)(=O)N2CC(Cc3nncn3C3CCCC3)C2)ccc1Cl` displayed an RP-LC retention time of 785 s.

Consider `CCCNC(=O)N1CCC(CCOc2cccnc2)CC1`, for which the RP-LC retention time worked out at 588 s.

As for `CCCNC(=O)c1ccc2cnn(C)c2c1`, the RP-LC retention time was 673 s.

Take `COC(=O)c1ccccc1NC(=O)c1ccc(F)cc1`: the RP-LC retention time is 1060 s.

In turn, `O=C(NCc1ccccn1)C(=O)Nc1ccc2c(c1)OCO2` yielded an RP-LC retention time of 579 s.

On to `CC(Cc1cccs1)NC(=O)CCS(=O)(=O)c1ccccc1` (stereo not given), for which the RP-LC retention time was found to be 746 s.

For `O=C(c1ccoc1)N1CCCC(OCc2nc(C3CC3)no2)C1` (stereo not given), the RP-LC retention time turned out to be 742 s.

As to `CCCCS(=O)(=O)N1CCC(c2cc(N)on2)CC1`, the RP-LC retention time was 706 s.

`CNC(=O)C1=CCN(C(=O)c2ccc(F)cc2F)CC1` displayed an RP-LC retention time of 644 s.

For the compound `CC(=O)Nc1ccc(C2(C(=O)N3CCCCCC3)CCC2)cc1`, the RP-LC retention time turned out to be 769 s.

Compound `Cc1ccc(Cn2c(=O)n(CCNC(=O)c3ccoc3)c3ncccc32)cc1` returned an RP-LC retention time of 760 s.

In turn, `COc1cc(OC)c(C(=O)CCCN2CCCC2)c(OC)c1` showed an RP-LC retention time of 666 s.

For the compound `COc1ccccc1NC(=O)N1CCCC1c1cc(C(C)C)on1` (stereo not given), the RP-LC retention time amounted to 950 s.

For the compound `COc1ccc(Br)c2c1-c1nc(NC(=O)c3cccc(F)c3)sc1C2`, the RP-LC retention time was determined as 1210 s.

The compound `CCCN1C(=O)c2cccnc2Sc2cc(C(=O)N3CCN(CC)CC3)ccc21` showed an RP-LC retention time of 594 s.

On to `Cc1ccc(-n2nc(N3CCCC(C(=O)Nc4ccc(F)cc4F)C3)ccc2=O)cc1Cl` (stereo not given), for which the RP-LC retention time was 1020 s.

As to `CCN(CCNC(=O)c1ccc2[nH]c3c(c2c1)CN(C(C)=O)CC3)c1ccccc1`, the RP-LC retention time is 1160 s.

`COc1ccc2nc(C(=O)NCc3ccc(F)cc3Cl)cn2n1`: the RP-LC retention time was found to be 872 s.

As for `CCOC(=O)N1CCN(S(=O)(=O)c2ccc(C(=O)Nc3nnc(C4CC4)o3)cc2)CC1`, the RP-LC retention time was found to be 661 s.

In turn, `COc1ccc(C2CC(=O)N(Cc3ccccc3)C(=O)C2)cc1OC` gave an RP-LC retention time of 904 s.

`O=C(Nc1ccc2c(c1)OCCO2)c1c(O)c2cccnc2n(-c2ccc(F)cc2)c1=O` came in with an RP-LC retention time of 1120 s.

As to `CCn1c(=O)n(CC)c2cc(S(=O)(=O)c3ccccc3)c(NC(C)=O)cc21`, the RP-LC retention time came out at 715 s.

Take `CCCNC(=O)c1nc2cc(C)c(C)cc2n(C)c1=O`: the RP-LC retention time was found to be 747 s.

The compound `Cc1cc2c(cc1S(=O)(=O)N1CCCC1C(=O)NCc1ccc(Cl)cc1)OCC(=O)N2` (stereo not given) displayed an RP-LC retention time of 806 s.

The compound `CC(C)CN(Cc1cccnc1)C1CN(S(=O)(=O)c2cccnc2)C1` showed an RP-LC retention time of 645 s.

`O=C(NCCCN1CCOCC1)C1CCCN(c2nc3ccccc3n(Cc3ccccc3)c2=O)C1` (stereo not given) gave an RP-LC retention time of 720 s.

In turn, `CCn1c(=O)n(CC(=O)N2CCN(C)CC2)c(=O)c2cnc(-c3ccc(Cl)cc3)nc21` had an RP-LC retention time of 696 s.

In turn, `COc1ccc(-c2noc(C3CCCN3C(=O)c3ccnn3C)n2)cc1` (stereo not given) showed an RP-LC retention time of 808 s.

For the compound `O=C(c1ccc(F)c(F)c1)N1CCN(C(=O)c2nnn3c2COC(c2ccccc2)C3)CC1` (stereo not given), the RP-LC retention time turned out to be 876 s.

Consider `CCOc1ccc(NS(=O)(=O)c2ccc(-c3nnc(C4CCC4)o3)o2)cc1`, for which the RP-LC retention time is 922 s.

With `O=C1NC(=O)/C(=C/c2ccc(C(=O)Nc3ccc(C(=O)O)cc3)cc2)S1`, the RP-LC retention time is 648 s.

The compound `Cc1c(-c2ccnc(N3CCN(Cc4ccccc4)CC3)n2)cnc2nc(-c3ccccc3)nn12` displayed an RP-LC retention time of 713 s.

On to `CC(C)N1CCN(C(=O)C2CC(=O)N(c3ccc4c(c3)CCN4C(=O)C3CC3)C2)CC1` (stereo not given), for which the RP-LC retention time was 579 s.

Regarding `CCc1ccc(CNC(=O)Cn2ccc3ccc(N4CCOCC4)nc32)cc1`, the RP-LC retention time stood at 969 s.

`O=C(Nc1cnn(-c2ncc(N3CCSCC3)cn2)c1)C1CCOC1` (stereo not given) returned an RP-LC retention time of 640 s.

As for `Cc1sc(NC(=O)c2cccs2)nc1-c1ccccc1`, the RP-LC retention time worked out at 1070 s.

As for `COc1ccc2cc(C(=O)Nc3ccc(F)cc3C)[nH]c2c1`, the RP-LC retention time was found to be 806 s.

On to `CCOCC(=O)N1CCc2c(c(C(=O)N3CCCC(C(=O)Nc4ccccc4)C3)nn2C)C1` (stereo not given), for which the RP-LC retention time came out at 668 s.

On to `CCOc1ccc(-c2ccc(=O)n(CCc3nc(-c4ccc(F)cc4)no3)n2)cc1`, for which the RP-LC retention time was 815 s.

Consider `CCCNC(=O)c1c2c(nc3ccc(C)cc13)CCC2`, for which the RP-LC retention time came to 625 s.

Regarding `COc1ccc(OCC(=O)NCc2cc(-c3cc4ccccc4o3)on2)cc1`, the RP-LC retention time turned out to be 893 s.

`COc1ccc(C2CC(=O)c3c(C)nc(N4CCN(c5ccccn5)CC4)nc3C2)c(OC)c1` (stereo not given) registered an RP-LC retention time of 765 s.

Take `CCn1c(C)c(C(=O)C(C)N(Cc2ccc(F)cc2)C(=O)C2CC2)c(C)c1C(=O)OC` (stereo not given): the RP-LC retention time was 1030 s.

Regarding `COc1cc(NC(=O)CCSc2ccccc2)c2ncccc2c1`, the RP-LC retention time turned out to be 1060 s.

Turning to `O=C(Nc1c(C(=O)N2CCN(c3ccccn3)CC2)[nH]c2ccccc12)c1ccc(Cl)cc1`, the RP-LC retention time was 678 s.

In turn, `Cc1cccc(-c2noc(Cn3c(=O)n(Cc4cccc(Cl)c4)c(=O)c4sccc43)n2)c1` had an RP-LC retention time of 1230 s.

The compound `O=C1CCc2cc(NS(=O)(=O)Cc3cccc(Cl)c3)ccc2N1` registered an RP-LC retention time of 938 s.

Turning to `CS(=O)(=O)N1CCCC1C(=O)Nc1cccc(F)c1` (stereo not given), the RP-LC retention time was determined as 730 s.

With `O=C(Nc1ccc2c(c1)OCO2)c1nnc(C(=O)N2CCCC(C(=O)NC3CCCC3)C2)s1` (stereo not given), the RP-LC retention time came to 860 s.

For `O=C(Nc1ccc(F)cc1)c1cnc(-c2ccc(F)cc2)nc1-c1ccncc1`, the RP-LC retention time turned out to be 898 s.

With `CC(C)CCNC(=O)C1CCN(S(C)(=O)=O)c2cc(Cl)ccc2O1` (stereo not given), the RP-LC retention time came out at 923 s.

`COc1coc(C(=O)N2CCN(S(C)(=O)=O)CC2)cc1=O` displayed an RP-LC retention time of 548 s.

The compound `Cn1nc(C(=O)Nc2onc3c2CSC3)ccc1=O` displayed an RP-LC retention time of 585 s.

On to `Cc1ccc2nc(-c3ccccc3F)c(Nc3c(C)cccc3C)n2c1`, for which the RP-LC retention time was determined as 793 s.

The compound `CCN(CC)S(=O)(=O)c1ccc2c(c1)N(CC(=O)NCCCOC(C)C)C(=O)C1CCCCN21` (stereo not given) returned an RP-LC retention time of 907 s.

Compound `COC(=O)c1ccc(NC(=O)Cc2csc(Nc3ccc(S(C)(=O)=O)cc3)n2)cc1` had an RP-LC retention time of 698 s.

Turning to `Cc1ccc2[nH]cc(CCNC(=O)CN3C(=O)CSc4cccn4-c4ccccc43)c2c1`, the RP-LC retention time came to 954 s.

Source of the values: the METLIN SMRT retention time set (Domingo-Almenara et al. 2019).
